# Data as given in patent US20260132129A1 (Genesis Therapeutics, Inc., priority 2022, published 2026).
# Biological target: T1, PI3Kα H1047R (T47D cells) (Homo sapiens, UniProt P42336, H1047R)
# T1 construct: endogenous in cells; host or cells: T47D cells
# Assay: PI3Kα cellular assay: pAKT HTRF in T47D cells after EGF stimulation
# Type: cell-based
# Conditions: for IC50: T47D cells (PI3Kα H1047R), pAKT S473 HTRF, EGF stimulation
# Method in brief: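 T47D cells (PIK3CA H1047R) serum-starved 16 h, then treated 1 h at 37 °C with compound (10,000 nM top, 3-fold steps to 0.5 nM). After 10 min stimulation with 20 ng/mL EGF, cells were lysed and pAKT measured by HTRF.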
# T1 sequence (P42336 whole entry H1047R): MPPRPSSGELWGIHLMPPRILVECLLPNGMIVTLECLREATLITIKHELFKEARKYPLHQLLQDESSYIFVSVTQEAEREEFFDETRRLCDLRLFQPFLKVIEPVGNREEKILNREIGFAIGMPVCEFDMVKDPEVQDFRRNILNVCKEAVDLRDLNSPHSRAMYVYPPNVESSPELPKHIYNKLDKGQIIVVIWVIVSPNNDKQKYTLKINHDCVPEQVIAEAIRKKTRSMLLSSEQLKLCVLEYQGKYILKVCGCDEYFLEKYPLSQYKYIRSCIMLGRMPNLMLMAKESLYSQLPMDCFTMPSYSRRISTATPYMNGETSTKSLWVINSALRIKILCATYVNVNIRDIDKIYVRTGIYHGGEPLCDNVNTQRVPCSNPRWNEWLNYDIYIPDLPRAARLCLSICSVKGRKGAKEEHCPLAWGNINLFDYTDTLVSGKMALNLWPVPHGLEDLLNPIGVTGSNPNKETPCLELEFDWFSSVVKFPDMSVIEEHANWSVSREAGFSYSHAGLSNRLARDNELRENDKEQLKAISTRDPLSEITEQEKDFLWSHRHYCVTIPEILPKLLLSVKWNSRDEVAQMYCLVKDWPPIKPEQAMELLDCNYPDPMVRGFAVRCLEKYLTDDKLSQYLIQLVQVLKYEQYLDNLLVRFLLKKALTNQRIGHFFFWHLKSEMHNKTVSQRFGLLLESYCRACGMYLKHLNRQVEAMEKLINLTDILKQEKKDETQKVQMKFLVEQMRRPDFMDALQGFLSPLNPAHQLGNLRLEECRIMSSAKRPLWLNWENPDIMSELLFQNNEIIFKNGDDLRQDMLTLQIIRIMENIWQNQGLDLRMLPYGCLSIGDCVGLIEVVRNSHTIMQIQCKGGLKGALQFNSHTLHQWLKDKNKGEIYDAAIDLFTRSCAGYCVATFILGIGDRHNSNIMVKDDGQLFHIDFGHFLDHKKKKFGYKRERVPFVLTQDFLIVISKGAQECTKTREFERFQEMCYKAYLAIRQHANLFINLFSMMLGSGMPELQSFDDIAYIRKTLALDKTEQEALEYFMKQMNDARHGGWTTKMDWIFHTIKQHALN
# T1 sequence (P27986 whole entry partner): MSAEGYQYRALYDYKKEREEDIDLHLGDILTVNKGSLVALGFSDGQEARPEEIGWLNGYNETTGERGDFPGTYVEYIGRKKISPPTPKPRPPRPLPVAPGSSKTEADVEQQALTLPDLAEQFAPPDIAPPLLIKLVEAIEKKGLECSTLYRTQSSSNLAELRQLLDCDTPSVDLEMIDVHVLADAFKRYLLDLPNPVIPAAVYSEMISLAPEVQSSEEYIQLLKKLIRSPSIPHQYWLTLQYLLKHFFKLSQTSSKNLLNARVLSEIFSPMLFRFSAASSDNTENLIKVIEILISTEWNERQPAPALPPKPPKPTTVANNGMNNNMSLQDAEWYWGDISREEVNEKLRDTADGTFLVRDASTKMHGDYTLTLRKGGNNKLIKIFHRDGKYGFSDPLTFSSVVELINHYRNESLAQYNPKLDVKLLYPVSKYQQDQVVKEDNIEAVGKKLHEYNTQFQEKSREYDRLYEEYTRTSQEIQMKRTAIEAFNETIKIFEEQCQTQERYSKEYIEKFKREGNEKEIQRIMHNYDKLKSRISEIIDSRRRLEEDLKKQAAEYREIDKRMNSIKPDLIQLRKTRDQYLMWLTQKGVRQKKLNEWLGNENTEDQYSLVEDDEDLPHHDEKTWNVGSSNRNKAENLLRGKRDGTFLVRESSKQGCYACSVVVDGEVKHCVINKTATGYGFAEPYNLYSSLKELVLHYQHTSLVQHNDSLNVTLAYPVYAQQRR
Structure (SMILES),IC50,T47D pAKT S473 HTRF IC50 (H1047R): T47D (H1047R) selectivity over SKBR3 (WT)
Cc1cc([C@H](C)Nc2ccccc2C(=O)O)c2nc(-c3cccc(C(F)F)c3)cc(=O)n2c1 [Compound 1114],< 0.1 µM,A (A denotes >20-fold)
CCc1c(-c2ccc(F)cc2)nc2c([C@H](C)Nc3ccccc3C(=O)O)cc(C)cn2c1=O [Compound 1116],0.5 to 2 µM,B (B denotes 20-fold≥value>5-fold)
C=CC(=O)Nc1ccc(C(=O)O)c(N[C@@H](C)c2cc(C)cn3c(=O)c(C)c(N4Cc5ccccc5C4)nc23)c1 [Compound 1122],> 2 µM,C (C denotes ≤5-fold)
Cc1cc([C@@H](C)Nc2ccccc2)c2nc(-c3ccc(F)cc3)c(C)c(=O)n2c1 [Compound 1123],> 2 µM,C (C denotes ≤5-fold)
Cc1cc([C@@H](C)Nc2ccccc2-c2ccnnc2)c2nc(-c3ccc4c(C)nn(C5CC5)c4c3)c(C)c(=O)n2c1 [Compound 1128],> 2 µM,C (C denotes ≤5-fold)
Cc1cc([C@H](C)Nc2ccccc2-c2ccnnc2)c2nc(-c3ccc4c(C)nn(C5CC5)c4c3)c(C)c(=O)n2c1 [Compound 1129],0.5 to 2 µM,B (B denotes 20-fold≥value>5-fold)
Cc1cc([C@H](C)Nc2ccccc2-c2ccnnc2)c2nc(-c3ccc4c(C)cn(C)c4c3)c(C)c(=O)n2c1 [Compound 1134],0.5 to 2 µM,B (B denotes 20-fold≥value>5-fold)
Cc1cc([C@@H](C)Nc2ccccc2C(N)=O)c2nc(-c3cnc(C)c(Cl)c3)c(C)c(=O)n2c1 [Compound 1135],0.1 to 0.5 µM,A (A denotes >20-fold)
Cc1cc([C@H](C)Nc2ccccc2C(N)=O)c2nc(-c3cnc(C)c(Cl)c3)c(C)c(=O)n2c1 [Compound 1136],> 2 µM,C (C denotes ≤5-fold)
Cc1cc([C@@H](C)Nc2ccccc2C(N)=O)c2nc(-c3cccc(C#N)c3)c(C)c(=O)n2c1 [Compound 1137],< 0.1 µM,A (A denotes >20-fold)
Cc1cc(C(C)Nc2ccccc2-c2ccnnc2)c2nc(-c3ccc(C)c(Cl)c3)c(C)c(=O)n2c1 (stereo not shown) [Compound 1140],–,A (A denotes >20-fold)
Cc1cc([C@@H](C)Nc2ccccc2-c2ccnnc2)c2nc(-c3cnc(C)c(Cl)c3)c(C)c(=O)n2c1 [Compound 1141],–,C (C denotes ≤5-fold)
Cc1cc(C(C)Nc2ccccc2-c2ccnnc2)c2nc(-c3cccnc3)c(C)c(=O)n2c1 (stereo not shown) [Compound 1143],0.1 to 0.5 µM,A (A denotes >20-fold)
Cc1cc([C@H](C)Nc2ccccc2-c2ccnnc2)c2nc(-c3cccnc3)c(C)c(=O)n2c1 [Compound 1145],0.1 to 0.5 µM,A (A denotes >20-fold)
Cc1cc([C@H](C)Nc2ccccc2C(=O)O)c2nc(-c3ccc(C4CCOCC4)nc3)c(C)c(=O)n2c1 [Compound 1147],> 2 µM,C (C denotes ≤5-fold)
Cc1cc([C@@H](C)Nc2ccccc2C(N)=O)c2nc(-c3ccc(C4CC4)nc3)c(C)c(=O)n2c1 [Compound 1153],0.1 to 0.5 µM,A (A denotes >20-fold)
Cc1cc([C@@H](C)Nc2ccccc2C(=O)O)c2nc(-c3ccnc(C4CC4)c3)cc(=O)n2c1 [Compound 1155],> 2 µM,C (C denotes ≤5-fold)
Cc1cc([C@@H](C)Nc2ccccc2C(=O)O)c2nc(-c3cnc(C)c(Cl)c3)cc(=O)n2c1 [Compound 1157],0.1 to 0.5 µM,A (A denotes >20-fold)
Cc1cc([C@H](C)Nc2ccccc2C(=O)O)c2nc(-c3cnc(C)c(Cl)c3)cc(=O)n2c1 [Compound 1158],> 2 µM,C (C denotes ≤5-fold)
CCC(Nc1ccccc1S(N)(=O)=O)c1cc(C)cn2c(=O)cc(N3CCOCC3)nc12 (stereo not shown) [Compound 1159],> 2 µM,C (C denotes ≤5-fold)
Cc1cc(C(C)Nc2ccccc2C(=O)O)c2nc(N3Cc4ccccc4C3)c(C#N)c(=O)n2c1 (stereo not shown) [Compound 1160],< 0.1 µM,A (A denotes >20-fold)

# Second part, the compound after the results:
IC50,T47D pAKT S473 HTRF IC50 (H1047R): T47D (H1047R) selectivity over SKBR3 (WT),Structure (SMILES)
< 0.1 µM,A (A denotes >20-fold),COc1cc(-c2nc3c([C@@H](C)Nc4ccccc4C(=O)O)cc(C)cn3c(=O)c2C)ccn1 [Compound 1101]
< 0.1 µM,A (A denotes >20-fold),Cc1cc(C(C)Nc2ccccc2C(=O)O)c2nc(-c3cc(F)cc(C#N)c3)c(C)c(=O)n2c1 (stereo not shown) [Compound 1103]
< 0.1 µM,A (A denotes >20-fold),Cc1cc([C@@H](C)Nc2ccccc2S(N)(=O)=O)c2nc(-c3cccnc3)c(C)c(=O)n2c1 [Compound 1107]
0.5 to 2 µM,B (B denotes 20-fold≥value>5-fold),Cc1cc([C@H](C)Nc2ccccc2S(N)(=O)=O)c2nc(-c3cccnc3)c(C)c(=O)n2c1 [Compound 1108]
< 0.1 µM,A (A denotes >20-fold),Cc1cc([C@@H](C)Nc2ccccc2C(=O)O)c2nc(-c3ccc(C4CC4)nc3)cc(=O)n2c1 [Compound 1111]
–,B (B denotes 20-fold≥value>5-fold),Cc1cc([C@H](C)Nc2ccccc2C(=O)O)c2nc(C3C=NC(C4CC4)=CC3)cc(=O)n2c1 (stereo partly shown) [Compound 1112]
> 2 µM,C (C denotes ≤5-fold),Cc1cc([C@@H](C)Nc2ccccc2C(=O)O)c2nc(-c3cccc(C(F)F)c3)cc(=O)n2c1 [Compound 1113]
< 0.1 µM,A (A denotes >20-fold),CCc1c(-c2ccc(F)cc2)nc2c([C@@H](C)Nc3ccccc3C(=O)O)cc(C)cn2c1=O [Compound 1115]
–,B (B denotes 20-fold≥value>5-fold),Cc1cc(C(C)Nc2ccccc2C#N)c2nc(-c3ccccc3)c(C)c(=O)n2c1 (stereo not shown) [Compound 1117]
> 2 µM,C (C denotes ≤5-fold),C=CC(=O)Nc1ccc(C(=O)O)c(N[C@H](C)c2cc(C)cn3c(=O)c(C)c(N4Cc5ccccc5C4)nc23)c1 [Compound 1121]
> 2 µM,C (C denotes ≤5-fold),Cc1cc([C@H](C)Nc2ccccc2)c2nc(-c3ccc(F)cc3)c(C)c(=O)n2c1 [Compound 1124]
> 2 µM,C (C denotes ≤5-fold),Cc1cc([C@H](C)Nc2ccccc2C(=O)O)c2nc(-c3ccc4c(C)nn(C5CC5)c4c3)c(C)c(=O)n2c1 [Compound 1126]
> 2 µM,C (C denotes ≤5-fold),Cc1cc(C(C)Nc2ccccc2-c2ccnnc2)c2nc(-c3ccc4c(C)nn(C5CC5)c4c3)c(C)c(=O)n2c1 (stereo not shown) [Compound 1127]
> 2 µM,C (C denotes ≤5-fold),Cc1cc([C@H](C)Nc2ccccc2C(N)=O)c2nc(-c3ccc4c(C)cn(C)c4c3)c(C)c(=O)n2c1 [Compound 1131]
> 2 µM,C (C denotes ≤5-fold),Cc1cc(C(C)Nc2ccccc2-c2ccnnc2)c2nc(-c3ccc4c(C)cn(C)c4c3)c(C)c(=O)n2c1 (stereo not shown) [Compound 1132]
> 2 µM,C (C denotes ≤5-fold),Cc1cc([C@@H](C)Nc2ccccc2-c2ccnnc2)c2nc(-c3ccc4c(C)cn(C)c4c3)c(C)c(=O)n2c1 [Compound 1133]
> 2 µM,C (C denotes ≤5-fold),Cc1cc([C@H](C)Nc2ccccc2C(N)=O)c2nc(-c3cccc(C#N)c3)c(C)c(=O)n2c1 [Compound 1138]
> 2 µM,C (C denotes ≤5-fold),Cc1cc([C@@H](C)Nc2ccccc2-c2ccnnc2)c2nc(-c3cccnc3)c(C)c(=O)n2c1 [Compound 1144]
< 0.1 µM,A (A denotes >20-fold),Cc1cc([C@@H](C)Nc2ccccc2C(=O)O)c2nc(-c3ccc(C4CCOCC4)nc3)c(C)c(=O)n2c1 [Compound 1146]
> 2 µM,C (C denotes ≤5-fold),Cc1cc([C@H](C)Nc2ccccc2C(=O)O)c2nc(-c3ccc(C(F)F)nc3)c(C)c(=O)n2c1 [Compound 1149]
–,C (C denotes ≤5-fold),CC1=CN2C(=O)C(C)C(c3ccc(CCC(C)(C)C)cc3)N=C2C([C@H](C)Nc2ccccc2C(=O)O)=C1 (stereo partly shown) [Compound 1151]
0.1 to 0.5 µM,A (A denotes >20-fold),Cc1cc(C(C)Nc2ccccc2C(N)=O)c2nc(-c3cccnc3)c(C)c(=O)n2c1 (stereo not shown) [Compound 1152]
> 2 µM,C (C denotes ≤5-fold),Cc1cc([C@H](C)Nc2ccccc2C(N)=O)c2nc(-c3ccc(C4CC4)nc3)c(C)c(=O)n2c1 [Compound 1154]
< 0.1 µM,A (A denotes >20-fold),Cc1cc([C@H](C)Nc2ccccc2C(=O)O)c2nc(-c3ccnc(C4CC4)c3)cc(=O)n2c1 [Compound 1156]
